What is called solubility is the concentration that dissolves in the medium under given conditions. A higher solubility goes with much dissolved substance.

We go through 9 molecules from patent US11814402B2, “Binuclear palladacycles and their use in the treatment of cancer” (Stellenbosch University, priority 2019, dated 2023).

The subject of data set [1] is human breast adenocarcinoma MDA-MB-231 (estrogen receptor negative) cells. In words: Cytotoxicity (MTT) assay, MDA-MB-231. In kind it is cell-based. Particulars: 48 hours treatment. As for the experimental part:
(§1) These included cell viability tests using a MTT assay, and in some cases Western blots to test for DNA damage using γ-H2AX and PARP cleavage to determine whether or not apoptosis takes place.
The complex solutions were prepared by dissolution in DMSO to obtain 5 mM stock solutions. Solutions were stored at room temperature for no more than a week. […] After 48 hours, the cells were treated with various concentrations of complex (0-1 μM) or the vehicle for 48 hours. The 3-(4,5-dimethylthiazol-2-yl)-2,5-diphenyltetrazolium bromide (MTT) assay was then used, as described by the manufacturer's instructions: 10 μL of MTT solution was added to each well. Well plates were then incubated at 37° C. for 4 h. This was followed by addition of 100 μL solubilisation buffer (10% SDS in 0.01 M HCl) and incubation overnight at 37° C. Absorbance at 585 nm was then determined for each well and the mean cell viability was calculated as a percentage of the mean vehicle control. The experiments were performed in triplicate and the data were used to determine the half maximal inhibitory concentration values (IC50).

Data set [2] concerns human breast adenocarcinoma MCF-7 (estrogen receptor positive) cells. Briefly: Cytotoxicity (MTT) assay, MCF-7. Type of data set: cell-based. Particulars: 48 hours treatment. As for the experimental part: as §1
The complex solutions were prepared by dissolution in DMSO to obtain 5 mM stock solutions. Solutions were stored at room temperature for no more than a week. […] The 3-(4,5-dimethylthiazol-2-yl)-2,5-diphenyltetrazolium bromide (MTT) assay was then used, as described by the manufacturer's instructions: 10 μL of MTT solution was added to each well. Well plates were then incubated at 37° C. for 4 h. This was followed by addition of 100 μL solubilisation buffer (10% SDS in 0.01 M HCl) and incubation overnight at 37° C. Absorbance at 585 nm was then determined for each well and the mean cell viability was calculated as a percentage of the mean vehicle control. The experiments were performed in triplicate and the data were used to determine the half maximal inhibitory concentration values (IC50).

In the next data set the test system is ME1402 melanoma cells. Particulars: Biochem. Pharmacol. 2013, 86, 1650; read-out: IC50 proliferation ME1402 melanoma cells; cited from earlier work.
The test system of data set [3] is oestrogen receptor negative MDA-MB-231 breast cancer cells. The conditions noted are these: prior report on AJ5; cited from earlier work.
Data set [4] can be described thus: Turbidimetric assay - solubility in 10% DMSO:PBS. Type of data set: physicochemical. The conditions noted are these: for aqueous solubility (in words): aqueous media. As for the experimental part:
A 0.01 M pH 7.4 Phosphate Buffered Saline (PBS) solution was prepared by dissolving one PBS tablet (Sigma-Aldrich) in 200 mL distilled water at 25° C. to yield a buffered solution containing 0.01 M phosphate buffer, 0.003 M KCl and 0.14 M NaCl. The solution equilibrated at 25° C. for one hour upon which the pH was confirmed.
A preparation plate (96-well flat bottomed) was prepared by serially diluting the compound to achieve the desired concentrations (5.0 μM to 200 μM). The test plate was prepared by pipetting […] into wells 7-12. Each compound was tested in triplicate thus a single plate could be used to evaluate two compounds. […] of each compound concentration was pipetted from the preparation plate into the test plate to bring the total volume up to 200 μL and to ensure that a 10% (v/v) DMSO/PBS solution is achieved. Test plates were prepared in duplicate and one plate was incubated at room temperature (25° C.) and the second at physiological temperature (37° C.). Both test plates were incubated for 2 hours upon which the UV-Vis absorbance readings were measured at 620 nm. The corrected absorbance readings were obtained by subtracting the blank readings from each concentration absorbance.

In data set [5] the test system is oestrogen receptor positive MCF7 breast cancer cells. Particulars: prior report on AJ5; read-out: IC50 MCF-7; cited from earlier work.
The subject of another data set is WM1158 melanoma cells. The conditions noted are these: Biochem. Pharmacol. 2013, 86, 1650; read-out: IC50 proliferation WM1158 melanoma cells; cited from earlier work.
Data set [6] has as its system MDA-MB-231 breast cancer cell line tumour. In words: In vivo anti-tumour activity, MDA-MB-231 (chick embryo model). Particulars: MDA-MB-231, about half the concentration of paclitaxel. As for the experimental part:
(§2) The activity of BTC2 was evaluated in two breast cancer cell lines (MCF 7 and MDA-MB-231). The latter is an aggressive, metastatic cell line in which metastasis is often difficult to prevent or control.
Again, BTC2 was used at about half the concentration of the control, paclitaxel.
(§3) Metastasis is the process of the spreading of the cancer from its site of origin to other parts of the body. This was evaluated using the same chick embryo model as mentioned above, and again compared to the known drug, paclitaxel.

For data set [7], the system named is MDA-MB 231 breast cancer cell line metastasis. In words: Metastasis reduction, MDA-MB 231 (chick embryo model). Type of data set: in vivo. As for the experimental part:
The ability of BTC2 to prevent metastasis was also evaluated.
as §3
When tested in the aggressive breast cancer cell line, MDA-MB 231, BTC2 was able to induce a 46% reduction in metastasis compared to 64% reduction for paclitaxel.

Data set [8] has as its system MCF 7 breast cancer cell line tumour. In words: In vivo anti-tumour activity, MCF 7 (chick embryo model). As for the experimental part: as §2, §3
Data set [9] in a line: Solubility in DMSO and DMSO/water (characterisation data). Particulars: for Solubility: DMSO: in DMSO; for behaviour on addition of water / aqueous medium: test medium.
The next data set deals with γ-H2AX in MCF7 cells. In words: Western blot, γ-H2AX (DNA damage). Type of data set: cell-based, human. The conditions noted are these: treatment for 24 and 48 hours. As for the experimental part: The complex solutions were prepared by dissolution in DMSO to obtain 0.1 and 0.2 μM stock solutions. Solutions were stored at room temperature for no more than a week. Human MCF7 breast adenocarcinoma cells in RPMI 1640 medium were plated in 6 cm petri dishes at 6×10^5 cells per plate. The cells were treated with the complex solutions for 24 or 48 hours. Cells were then lysed using whole cell lysis buffer (0.5 M tris-HCl, pH 6.8, 2% SDS, 10% glycerol, 1% β-mercaptoethanol and 0.02% bromophenol blue). Samples were boiled for 10 minutes. The proteins were resolved using SDS/PAGE (8-15% gels) as required. They were then transferred to Hybond ECL membranes which were then incubated with primary antibodies against PARP ½ (sc-7150), phospho-H2AX (#2577) and p38 (M000). Thereafter, the membranes were incubated with HRP-conjugated secondary antibodies (1:5000). The antibody-reactive proteins were visualised with a chemiluminescence reaction (ECL) detection system.
The most important proteins which are employed as markers for potential anti-cancer drugs are γ-H2AX, which, if present, is an indication of DNA damage and PARP, which if cleaved, is an indication that apoptosis has been induced. In order to allow for relative quantification of the proteins being detected, a loading control, P38, was used to ensure that loading discrepancies are not interpreted as drug-induced changes.

The mark [10] stands for this setting: turbidimetric assay, 10% DMSO:PBS pH 7.4, 37° C., 2 hours incubation.

“[(PdCl{4-[2-(2-hydroxyethoxy)ethoxy]}CH═N{2,6-^iPr2-C6H3})2(μ-Ph2P(CH2)3PPh2)] [BTC3]”: the IC50 came to 2300 ± 190 nM in [1] and 2500 ± 260 nM in [2].

For `CC(C)c1cccc(C(C)C)c1[N+]1=Cc2cccc[c]2[Pd-2]1([Cl])[P+](CC[P+](c1ccccc1)(c1ccccc1)[Pd-2]1([Cl])[c]2ccccc2C=[N+]1c1c(C(C)C)cccc1C(C)C)(c1ccccc1)c1ccccc1` (centres unmarked) [AJ5], the IC50 in data set [1] is 190 ± 15 nM; in the data set on ME1402 melanoma cells it was 190 nM; in [3], 193 nM; in data set [2], 180 ± 48 nM; in data set [5], 175 nM; with WM1158 melanoma cells, 200 nM. Besides, in data set [4], the “aqueous solubility (in words)” value is on record as “poor solubility”. Besides, in data set [4] (setting [10]), the “Solubility in 10% DMSO:PBS at 37° C.” value lay in the range of 5.98 to 11.97 µg/mL.

`CC(C)c1cccc(C(C)C)c1[N+]1=Cc2cccc[c]2[Pd-2]1([Cl])[P+](CCC[P+](c1ccccc1)(c1ccccc1)[Pd-2]1([Cl])[c]2ccccc2C=[N+]1c1c(C(C)C)cccc1C(C)C)(c1ccccc1)c1ccccc1` (centres unmarked) [BC3]: the IC50 was found to be 5000 ± 75 nM in data set [1] and 5800 ± 280 nM in [2]. The “Solubility in 10% DMSO:PBS at 37° C.” value in data set [4] (setting [10]) is 6.12 to 12.25 µg/mL.

With `CC(C)c1cccc(C(C)C)c1[N+]1=Cc2cccc[c]2[Pd-2]1([Cl])[P+](C[P+](c1ccccc1)(c1ccccc1)[Pd-2]1([Cl])[c]2ccccc2C=[N+]1c1c(C(C)C)cccc1C(C)C)(c1ccccc1)c1ccccc1` (centres unmarked) [BC1], the IC50 is 2200 ± 190 nM in data set [1] and 2700 ± 210 nM in [2]. Also, the “Solubility in 10% DMSO:PBS at 37° C.” value in data set [4] (setting [10]) fell in the range of 10.21 to 20.41 µg/mL.

As to `CC(C)c1cccc(C(C)C)c1[N+]1=Cc2ccc(OCCO)c[c]2[Pd-2]1([Cl])[P+](CC[P+](c1ccccc1)(c1ccccc1)[Pd-2]1([Cl])[c]2cc(OCCO)ccc2C=[N+]1c1c(C(C)C)cccc1C(C)C)(c1ccccc1)c1ccccc1` (centres unmarked) [BTC5, [(PdCl{4-(2-hydroxyethoxy})CH═N{2,6-^iPr2-C6H3})2(μ-Ph2P(CH2)2PPh2)]], the solubility at 2 h in data set [4] (10% DMSO:phosphate buffered saline, aqueous with cosolvent or surfactant or cyclodextrin, kinetic from dmso stock, turbidimetric assay, 10% DMSO:PBS pH 7.4, 37° C., 2 hours incubation) lay within 13.3 to 26.6 µg/mL.

Take “[(PdCl{4-[2-(2-hydroxyethoxy)ethoxy]}CH═N{2,6-^iPr2-C6H3})2(μ-Ph2P(CH2)2PPh2)] [BTC2]”: the IC50 in data set [1] is 580 ± 12 nM. For the same molecule, the “tumour reduction (in words)” value in [6] was “able to induce tumour reduction”. The molecule further had a reduction in metastasis in [7] (MDA-MB 231, 24.4 μM) of 46%. This molecule returned a tumour regression in [8] (MCF 7, concentration 24.5 μM) of 21%. Also, in data set [9], the “Solubility: % DMSO in water” value came to 76 % DMSO in water and the “Solubility: DMSO” value worked out at 32600 µg/mL. The “Solubility in 10% DMSO:PBS at 37° C.” value in data set [4] (setting [10]) was 28.38 to 56.77 µg/mL. In data set [2], this molecule gave an IC50 of 490 ± 20 nM. Moreover, in the data set with γ-H2AX in MCF7 cells, the “γ-H2AX (Western blot)” value was “significant amount of γ-H2AX”.

Molecule `CC(=O)O[C@H]1C(=O)[C@@]2(C)[C@H]([C@H](OC(=O)c3ccccc3)[C@]3(O)C[C@H](OC(=O)[C@H](O)[C@@H](NC(=O)c4ccccc4)c4ccccc4)C(C)=C1C3(C)C)[C@]1(OC(C)=O)CO[C@@H]1C[C@@H]2O` [paclitaxel] yielded a reduction in metastasis in data set [7] (MDA-MB 231, 50 μM) of 64%. This molecule also registered a tumour regression in data set [8] (MCF 7, concentration 50 μM) of 26%.

For the molecule `CC(C)c1cccc(C(C)C)c1[N+]1=Cc2cccc[c]2[Pd-2]1([Cl])[P+](c1ccccc1)(c1ccccc1)[c-]1cccc1.CC(C)c1cccc(C(C)C)c1[N+]1=Cc2cccc[c]2[Pd-2]1([Cl])[P+](c1ccccc1)(c1ccccc1)[c-]1cccc1.[Fe+2]` (centres unmarked) [BC4], in data set [1], the “IC50 MDA-MB-231” value is “Inactive”. For the same molecule, in data set [9], the “behaviour on addition of water / aqueous medium” value is given as “completely intolerant of water”. Besides, the “Solubility in 10% DMSO:PBS at 37° C.” value in data set [4] (setting [10]) was 13.65 to 27.30 µg/mL. For the same molecule, in data set [2], the “IC50 MCF-7” value is on record as “Inactive”.

`CC(C)c1cccc(C(C)C)c1[N+]1=Cc2ccc(OCCOCCO)c[c]2[Pd-2]1([Cl])[P+](c1ccccc1)(c1ccccc1)[c-]1cccc1.CC(C)c1cccc(C(C)C)c1[N+]1=Cc2ccc(OCCOCCO)c[c]2[Pd-2]1([Cl])[P+](c1ccccc1)(c1ccccc1)[c-]1cccc1.[Fe+2]` (centres unmarked) [BTC4, [(PdCl{4-[2-(2-hydroxyethoxy)ethoxy]}CH═N{2,6-^iPr2-C6H3})2(μ-Ph2P(C5H4)Fe(C5H4)PPh2]]: in data set [1], the “IC50 MDA-MB-231” value was “Inactive”. Further, in data set [9], the “Solubility: % DMSO in water” value stood at 98 % DMSO in water, the “Solubility: DMSO” value came out at 53700 µg/mL and the “behaviour on addition of water / aqueous medium” value is “completely intolerant of water”. For the same molecule, the “aqueous solubility (in words)” value in data set [4] was “highly insoluble”. In addition, in data set [2], the “IC50 MCF-7” value is recorded as “Inactive”.
